Measured values from ChEMBL document CHEMBL5446079, “Affinity Biochemical Literature for EUbOPEN Chemogenomic Library” (2024).
Values belong to the compound of their own block, whether it stands above or below them.

Key:
[1] = target: T1, Bromodomain-containing protein 9 (Homo sapiens, UniProt Q9H8M2)
T1 sequence (Q9H8M2 whole entry): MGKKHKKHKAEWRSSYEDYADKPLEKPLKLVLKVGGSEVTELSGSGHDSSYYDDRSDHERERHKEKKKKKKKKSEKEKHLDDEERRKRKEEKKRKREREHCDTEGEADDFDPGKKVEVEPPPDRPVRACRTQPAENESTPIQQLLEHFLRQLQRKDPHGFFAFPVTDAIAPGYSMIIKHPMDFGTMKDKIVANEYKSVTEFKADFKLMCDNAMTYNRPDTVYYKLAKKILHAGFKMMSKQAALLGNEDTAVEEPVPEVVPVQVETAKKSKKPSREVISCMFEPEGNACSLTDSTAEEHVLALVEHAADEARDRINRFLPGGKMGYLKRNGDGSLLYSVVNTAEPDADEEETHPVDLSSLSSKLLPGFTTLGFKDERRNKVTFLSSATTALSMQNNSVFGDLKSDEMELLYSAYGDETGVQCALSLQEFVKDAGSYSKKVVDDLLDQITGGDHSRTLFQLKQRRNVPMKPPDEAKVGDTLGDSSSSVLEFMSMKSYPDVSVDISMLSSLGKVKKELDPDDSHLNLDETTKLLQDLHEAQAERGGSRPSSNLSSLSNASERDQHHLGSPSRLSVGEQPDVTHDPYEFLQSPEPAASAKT

Peregrin = target: T2, Peregrin (Homo sapiens, UniProt P55201)
T2 sequence (P55201 whole entry): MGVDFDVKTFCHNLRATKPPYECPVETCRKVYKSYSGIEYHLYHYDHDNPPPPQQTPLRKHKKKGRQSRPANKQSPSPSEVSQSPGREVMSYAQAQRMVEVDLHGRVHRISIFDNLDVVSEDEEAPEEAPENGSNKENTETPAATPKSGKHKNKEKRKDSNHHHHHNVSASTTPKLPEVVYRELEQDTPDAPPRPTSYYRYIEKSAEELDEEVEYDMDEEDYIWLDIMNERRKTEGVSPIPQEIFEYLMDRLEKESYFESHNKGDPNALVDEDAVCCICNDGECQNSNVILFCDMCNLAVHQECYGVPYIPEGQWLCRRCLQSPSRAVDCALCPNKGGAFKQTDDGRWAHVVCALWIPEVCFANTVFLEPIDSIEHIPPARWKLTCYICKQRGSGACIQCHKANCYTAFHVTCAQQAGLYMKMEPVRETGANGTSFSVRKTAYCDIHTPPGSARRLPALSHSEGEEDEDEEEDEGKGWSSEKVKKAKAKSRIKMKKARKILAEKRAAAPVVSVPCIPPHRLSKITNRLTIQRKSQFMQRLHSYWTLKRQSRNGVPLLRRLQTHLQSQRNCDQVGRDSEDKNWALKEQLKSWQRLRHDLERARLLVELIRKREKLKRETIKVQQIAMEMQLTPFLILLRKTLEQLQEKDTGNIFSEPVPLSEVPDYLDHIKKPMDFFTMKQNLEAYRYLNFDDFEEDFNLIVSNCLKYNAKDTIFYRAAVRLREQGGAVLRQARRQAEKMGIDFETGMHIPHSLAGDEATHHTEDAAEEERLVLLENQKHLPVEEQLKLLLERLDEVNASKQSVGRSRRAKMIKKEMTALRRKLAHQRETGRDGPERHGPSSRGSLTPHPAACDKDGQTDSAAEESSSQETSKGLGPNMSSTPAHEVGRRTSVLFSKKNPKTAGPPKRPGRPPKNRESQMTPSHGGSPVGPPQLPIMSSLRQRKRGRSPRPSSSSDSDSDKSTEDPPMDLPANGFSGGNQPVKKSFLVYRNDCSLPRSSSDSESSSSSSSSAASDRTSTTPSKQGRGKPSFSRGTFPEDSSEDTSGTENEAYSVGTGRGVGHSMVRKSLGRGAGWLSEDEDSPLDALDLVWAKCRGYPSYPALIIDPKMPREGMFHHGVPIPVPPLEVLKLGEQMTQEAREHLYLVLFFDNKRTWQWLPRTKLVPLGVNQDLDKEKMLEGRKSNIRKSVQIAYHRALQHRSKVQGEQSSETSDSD

[2] = target: T3, Bromodomain-containing protein 1 (Homo sapiens, UniProt O95696)
T3 sequence (O95696 whole entry): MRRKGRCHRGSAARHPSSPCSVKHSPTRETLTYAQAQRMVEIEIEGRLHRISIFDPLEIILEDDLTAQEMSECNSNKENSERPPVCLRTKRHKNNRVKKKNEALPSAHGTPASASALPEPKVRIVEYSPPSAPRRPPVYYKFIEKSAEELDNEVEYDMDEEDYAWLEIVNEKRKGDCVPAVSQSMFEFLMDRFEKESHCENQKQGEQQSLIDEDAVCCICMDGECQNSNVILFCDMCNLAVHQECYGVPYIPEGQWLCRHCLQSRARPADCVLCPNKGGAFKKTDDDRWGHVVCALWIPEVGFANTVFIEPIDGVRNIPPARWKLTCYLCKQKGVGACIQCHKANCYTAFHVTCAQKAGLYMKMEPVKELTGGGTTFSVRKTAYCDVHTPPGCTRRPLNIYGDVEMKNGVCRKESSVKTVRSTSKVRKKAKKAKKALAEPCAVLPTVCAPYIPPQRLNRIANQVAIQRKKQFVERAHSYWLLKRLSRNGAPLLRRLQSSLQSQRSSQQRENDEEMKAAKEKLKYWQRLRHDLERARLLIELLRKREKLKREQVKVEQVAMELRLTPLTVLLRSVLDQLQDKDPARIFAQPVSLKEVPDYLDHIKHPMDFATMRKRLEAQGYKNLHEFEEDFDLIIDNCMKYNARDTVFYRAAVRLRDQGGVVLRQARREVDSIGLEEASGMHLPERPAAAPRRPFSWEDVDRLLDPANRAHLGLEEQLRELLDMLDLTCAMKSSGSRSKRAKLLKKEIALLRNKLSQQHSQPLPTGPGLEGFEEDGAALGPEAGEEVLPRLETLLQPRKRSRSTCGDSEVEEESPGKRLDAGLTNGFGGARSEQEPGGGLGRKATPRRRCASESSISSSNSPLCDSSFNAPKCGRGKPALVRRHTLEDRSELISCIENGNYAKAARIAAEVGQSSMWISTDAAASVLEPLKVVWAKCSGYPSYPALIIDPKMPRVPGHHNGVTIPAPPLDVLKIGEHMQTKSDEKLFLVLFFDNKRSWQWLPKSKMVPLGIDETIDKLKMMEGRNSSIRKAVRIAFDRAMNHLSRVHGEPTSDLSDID

[3] = target: T4, Bromodomain and PHD finger-containing protein 3 (Homo sapiens, UniProt Q9ULD4)
T4 sequence (Q9ULD4 whole entry): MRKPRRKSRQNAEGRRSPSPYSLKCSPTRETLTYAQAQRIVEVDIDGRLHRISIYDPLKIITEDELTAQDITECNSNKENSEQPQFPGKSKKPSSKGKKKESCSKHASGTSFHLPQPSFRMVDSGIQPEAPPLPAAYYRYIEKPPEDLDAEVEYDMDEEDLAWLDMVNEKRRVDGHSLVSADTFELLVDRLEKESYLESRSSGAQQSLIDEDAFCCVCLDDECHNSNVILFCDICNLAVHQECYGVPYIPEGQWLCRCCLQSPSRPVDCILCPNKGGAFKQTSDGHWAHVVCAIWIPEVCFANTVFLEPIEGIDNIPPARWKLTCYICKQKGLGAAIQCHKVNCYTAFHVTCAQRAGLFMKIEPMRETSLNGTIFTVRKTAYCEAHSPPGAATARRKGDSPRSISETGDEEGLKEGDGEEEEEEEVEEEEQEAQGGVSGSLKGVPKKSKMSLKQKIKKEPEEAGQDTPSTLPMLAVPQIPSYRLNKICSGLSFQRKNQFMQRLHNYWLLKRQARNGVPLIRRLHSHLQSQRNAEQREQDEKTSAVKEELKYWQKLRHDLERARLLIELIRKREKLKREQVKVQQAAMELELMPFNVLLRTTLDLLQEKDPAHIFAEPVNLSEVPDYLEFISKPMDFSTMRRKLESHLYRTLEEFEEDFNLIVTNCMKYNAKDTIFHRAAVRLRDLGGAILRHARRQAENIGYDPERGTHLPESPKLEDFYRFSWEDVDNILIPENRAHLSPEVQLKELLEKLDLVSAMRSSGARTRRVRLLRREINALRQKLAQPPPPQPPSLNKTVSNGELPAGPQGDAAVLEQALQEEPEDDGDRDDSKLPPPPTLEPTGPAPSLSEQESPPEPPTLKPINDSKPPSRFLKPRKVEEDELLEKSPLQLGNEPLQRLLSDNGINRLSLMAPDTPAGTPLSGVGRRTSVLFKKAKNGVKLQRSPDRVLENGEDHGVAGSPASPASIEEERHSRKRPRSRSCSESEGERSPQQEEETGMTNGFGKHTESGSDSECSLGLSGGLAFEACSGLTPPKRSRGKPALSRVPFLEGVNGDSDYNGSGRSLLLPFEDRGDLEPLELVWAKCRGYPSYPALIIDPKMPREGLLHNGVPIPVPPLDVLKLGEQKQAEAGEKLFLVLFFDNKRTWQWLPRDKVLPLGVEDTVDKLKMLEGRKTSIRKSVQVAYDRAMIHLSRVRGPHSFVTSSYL

[4] = target: Protein-arginine deiminase type-4 (Homo sapiens, UniProt Q9UM07)
Sequence of Protein-arginine deiminase type-4 (Q9UM07 whole entry): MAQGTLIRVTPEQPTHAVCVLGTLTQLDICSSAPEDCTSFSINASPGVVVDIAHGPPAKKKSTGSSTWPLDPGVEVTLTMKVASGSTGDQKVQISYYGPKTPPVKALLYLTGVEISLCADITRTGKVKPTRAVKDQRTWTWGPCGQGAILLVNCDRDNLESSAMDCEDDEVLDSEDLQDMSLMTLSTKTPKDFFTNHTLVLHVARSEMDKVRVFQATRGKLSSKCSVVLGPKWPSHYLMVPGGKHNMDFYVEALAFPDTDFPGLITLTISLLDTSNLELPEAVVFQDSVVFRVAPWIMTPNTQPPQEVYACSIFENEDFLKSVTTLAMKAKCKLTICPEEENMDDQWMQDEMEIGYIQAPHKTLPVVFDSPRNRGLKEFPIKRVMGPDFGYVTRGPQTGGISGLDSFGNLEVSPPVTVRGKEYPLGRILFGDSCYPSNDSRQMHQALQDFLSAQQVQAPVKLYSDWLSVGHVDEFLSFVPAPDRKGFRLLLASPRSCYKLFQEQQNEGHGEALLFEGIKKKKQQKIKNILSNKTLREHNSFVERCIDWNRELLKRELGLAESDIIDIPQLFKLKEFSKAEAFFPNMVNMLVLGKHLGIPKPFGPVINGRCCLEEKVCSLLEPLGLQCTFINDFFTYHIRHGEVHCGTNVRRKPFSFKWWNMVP

SRSF protein kinase 2 = SRSF protein kinase 2 (Homo sapiens, UniProt P78362)
Sequence of SRSF protein kinase 2 (P78362 whole entry): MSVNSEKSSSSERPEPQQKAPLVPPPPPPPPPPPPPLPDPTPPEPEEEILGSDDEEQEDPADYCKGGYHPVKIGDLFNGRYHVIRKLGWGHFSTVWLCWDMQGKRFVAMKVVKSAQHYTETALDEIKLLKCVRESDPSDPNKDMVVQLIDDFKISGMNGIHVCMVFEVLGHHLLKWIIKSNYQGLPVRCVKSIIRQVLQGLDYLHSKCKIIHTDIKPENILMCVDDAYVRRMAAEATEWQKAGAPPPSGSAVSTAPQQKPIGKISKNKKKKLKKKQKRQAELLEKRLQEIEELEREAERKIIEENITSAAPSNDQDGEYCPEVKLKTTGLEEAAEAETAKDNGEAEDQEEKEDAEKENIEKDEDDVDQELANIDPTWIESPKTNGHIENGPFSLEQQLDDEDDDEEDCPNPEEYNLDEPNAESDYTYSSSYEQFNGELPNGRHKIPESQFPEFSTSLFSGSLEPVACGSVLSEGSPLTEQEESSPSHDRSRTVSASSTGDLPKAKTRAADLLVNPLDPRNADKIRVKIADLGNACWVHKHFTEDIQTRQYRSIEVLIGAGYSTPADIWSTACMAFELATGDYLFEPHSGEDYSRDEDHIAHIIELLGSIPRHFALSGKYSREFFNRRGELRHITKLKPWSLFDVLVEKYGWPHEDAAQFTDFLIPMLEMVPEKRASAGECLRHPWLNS

SRSF protein kinase 1 = SRSF protein kinase 1 (Homo sapiens, UniProt Q96SB4)
Sequence of SRSF protein kinase 1 (Q96SB4 whole entry): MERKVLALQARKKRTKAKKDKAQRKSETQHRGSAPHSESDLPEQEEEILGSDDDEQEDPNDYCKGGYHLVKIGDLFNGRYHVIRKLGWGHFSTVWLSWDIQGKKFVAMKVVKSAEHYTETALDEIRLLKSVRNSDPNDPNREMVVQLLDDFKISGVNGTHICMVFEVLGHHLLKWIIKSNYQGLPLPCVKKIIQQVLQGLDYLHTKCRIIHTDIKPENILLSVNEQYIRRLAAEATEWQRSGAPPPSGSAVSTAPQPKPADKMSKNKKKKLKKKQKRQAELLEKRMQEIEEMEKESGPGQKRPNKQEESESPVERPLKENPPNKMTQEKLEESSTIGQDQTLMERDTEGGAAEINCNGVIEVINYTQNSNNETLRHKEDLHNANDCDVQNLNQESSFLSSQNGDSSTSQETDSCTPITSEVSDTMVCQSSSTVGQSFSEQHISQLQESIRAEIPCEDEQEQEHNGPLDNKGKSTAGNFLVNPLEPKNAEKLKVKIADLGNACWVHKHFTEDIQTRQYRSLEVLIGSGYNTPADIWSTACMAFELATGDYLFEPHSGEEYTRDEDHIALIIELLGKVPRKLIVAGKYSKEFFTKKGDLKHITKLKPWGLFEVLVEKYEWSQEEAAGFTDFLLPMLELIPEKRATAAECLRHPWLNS

CDK8/Cyclin C = CDK8/Cyclin C (Homo sapiens, UniProt P49336); format: protein-complex assay
Sequence of CDK8/Cyclin C (P49336 whole entry): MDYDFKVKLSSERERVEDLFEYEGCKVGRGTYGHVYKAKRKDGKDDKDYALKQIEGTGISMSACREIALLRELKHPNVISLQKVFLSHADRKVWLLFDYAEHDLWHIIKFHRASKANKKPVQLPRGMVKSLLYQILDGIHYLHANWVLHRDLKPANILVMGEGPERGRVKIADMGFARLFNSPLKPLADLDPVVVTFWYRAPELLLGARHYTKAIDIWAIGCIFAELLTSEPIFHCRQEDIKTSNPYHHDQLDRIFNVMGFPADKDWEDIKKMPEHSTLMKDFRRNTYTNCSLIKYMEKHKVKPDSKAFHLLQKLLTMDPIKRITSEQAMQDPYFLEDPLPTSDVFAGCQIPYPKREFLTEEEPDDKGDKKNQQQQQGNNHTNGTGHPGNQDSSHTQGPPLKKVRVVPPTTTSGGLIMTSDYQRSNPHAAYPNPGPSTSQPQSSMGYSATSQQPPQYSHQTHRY
Sequence of CDK8/Cyclin C (P24863 whole entry, further chain): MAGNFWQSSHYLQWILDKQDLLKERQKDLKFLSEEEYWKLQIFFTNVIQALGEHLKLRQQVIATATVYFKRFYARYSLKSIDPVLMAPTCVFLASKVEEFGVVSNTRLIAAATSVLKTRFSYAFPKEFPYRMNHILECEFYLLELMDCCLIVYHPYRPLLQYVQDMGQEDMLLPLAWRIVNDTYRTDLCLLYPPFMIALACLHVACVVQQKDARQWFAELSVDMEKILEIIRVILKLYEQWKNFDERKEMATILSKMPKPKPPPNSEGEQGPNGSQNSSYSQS

[5] = target: Nucleosome-remodeling factor subunit BPTF (Homo sapiens, UniProt Q12830)
[6] = target: Chromatin remodeling regulator CECR2 (Homo sapiens, UniProt Q9BXF3)
[7] = target: T5, Histone-lysine N-methyltransferase NSD3 (Homo sapiens, UniProt Q9BZ95)
T5 sequence (Q9BZ95 whole entry): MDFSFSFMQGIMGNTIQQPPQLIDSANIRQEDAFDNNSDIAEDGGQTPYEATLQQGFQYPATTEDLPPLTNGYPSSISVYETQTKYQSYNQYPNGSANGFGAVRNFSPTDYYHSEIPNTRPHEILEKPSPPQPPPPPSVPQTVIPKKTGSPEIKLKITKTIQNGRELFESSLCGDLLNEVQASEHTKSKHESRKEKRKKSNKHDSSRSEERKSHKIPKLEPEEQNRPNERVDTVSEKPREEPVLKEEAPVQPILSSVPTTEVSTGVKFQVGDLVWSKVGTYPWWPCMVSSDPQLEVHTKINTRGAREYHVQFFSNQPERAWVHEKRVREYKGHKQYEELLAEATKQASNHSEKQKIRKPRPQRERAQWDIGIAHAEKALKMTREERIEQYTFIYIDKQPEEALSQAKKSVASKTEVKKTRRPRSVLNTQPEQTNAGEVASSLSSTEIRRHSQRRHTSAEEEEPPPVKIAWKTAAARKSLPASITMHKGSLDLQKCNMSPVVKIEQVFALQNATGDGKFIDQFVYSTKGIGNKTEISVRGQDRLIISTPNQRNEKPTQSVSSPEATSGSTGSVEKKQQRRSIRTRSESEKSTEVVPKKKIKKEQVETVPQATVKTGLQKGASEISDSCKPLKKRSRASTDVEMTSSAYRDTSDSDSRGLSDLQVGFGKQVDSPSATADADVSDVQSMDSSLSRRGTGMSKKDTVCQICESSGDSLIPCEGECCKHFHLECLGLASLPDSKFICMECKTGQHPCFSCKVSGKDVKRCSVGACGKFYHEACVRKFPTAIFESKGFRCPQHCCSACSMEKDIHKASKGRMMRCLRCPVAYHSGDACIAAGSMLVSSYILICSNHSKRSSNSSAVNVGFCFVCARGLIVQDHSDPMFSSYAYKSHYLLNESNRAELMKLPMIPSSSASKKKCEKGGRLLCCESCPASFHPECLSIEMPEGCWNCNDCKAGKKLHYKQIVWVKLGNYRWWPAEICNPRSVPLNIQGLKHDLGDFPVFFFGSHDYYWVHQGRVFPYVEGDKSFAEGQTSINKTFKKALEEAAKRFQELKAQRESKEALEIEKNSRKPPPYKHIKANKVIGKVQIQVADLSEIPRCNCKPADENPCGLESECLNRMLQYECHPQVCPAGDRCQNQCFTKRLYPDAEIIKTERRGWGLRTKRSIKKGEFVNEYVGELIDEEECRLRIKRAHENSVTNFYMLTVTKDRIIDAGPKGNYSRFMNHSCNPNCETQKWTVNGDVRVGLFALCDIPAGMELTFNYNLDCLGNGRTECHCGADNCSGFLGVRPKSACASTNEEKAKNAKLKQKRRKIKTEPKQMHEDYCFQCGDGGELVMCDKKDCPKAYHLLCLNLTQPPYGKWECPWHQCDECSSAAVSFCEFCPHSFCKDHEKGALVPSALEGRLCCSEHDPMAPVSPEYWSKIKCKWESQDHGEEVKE

[8] = target: Dual specificity protein kinase CLK2 (Homo sapiens, UniProt P49760)
Sequence of Dual specificity protein kinase CLK2 (P49760 whole entry): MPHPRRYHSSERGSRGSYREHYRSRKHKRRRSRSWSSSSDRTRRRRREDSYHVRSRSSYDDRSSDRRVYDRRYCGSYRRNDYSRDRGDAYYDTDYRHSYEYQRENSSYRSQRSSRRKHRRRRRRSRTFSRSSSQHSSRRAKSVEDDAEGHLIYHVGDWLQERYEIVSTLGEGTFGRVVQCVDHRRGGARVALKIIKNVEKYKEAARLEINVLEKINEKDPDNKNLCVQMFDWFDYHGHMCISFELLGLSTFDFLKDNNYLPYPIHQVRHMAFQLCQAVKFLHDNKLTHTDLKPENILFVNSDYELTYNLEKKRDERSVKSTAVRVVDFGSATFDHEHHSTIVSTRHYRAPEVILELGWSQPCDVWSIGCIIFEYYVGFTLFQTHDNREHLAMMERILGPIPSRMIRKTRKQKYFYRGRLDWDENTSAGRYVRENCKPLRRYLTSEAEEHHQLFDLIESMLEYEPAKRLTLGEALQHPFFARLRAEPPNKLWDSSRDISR

[9] = target: Dual specificity protein kinase CLK4 (Homo sapiens, UniProt Q9HAZ1)
Sequence of Dual specificity protein kinase CLK4 (Q9HAZ1 whole entry): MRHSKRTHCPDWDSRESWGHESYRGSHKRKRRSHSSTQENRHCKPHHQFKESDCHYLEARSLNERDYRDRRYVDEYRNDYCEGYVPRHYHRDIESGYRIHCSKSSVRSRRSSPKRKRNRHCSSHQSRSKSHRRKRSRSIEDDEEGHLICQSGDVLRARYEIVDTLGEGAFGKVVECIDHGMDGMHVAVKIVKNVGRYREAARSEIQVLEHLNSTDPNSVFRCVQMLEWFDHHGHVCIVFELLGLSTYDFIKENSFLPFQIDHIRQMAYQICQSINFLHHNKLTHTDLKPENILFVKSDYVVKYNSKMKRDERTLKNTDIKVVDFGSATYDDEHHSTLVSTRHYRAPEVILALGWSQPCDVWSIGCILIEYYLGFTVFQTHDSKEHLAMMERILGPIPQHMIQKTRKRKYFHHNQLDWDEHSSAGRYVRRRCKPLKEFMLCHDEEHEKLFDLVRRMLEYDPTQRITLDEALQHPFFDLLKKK

[10] = target: Dual specificity protein kinase CLK1 (Homo sapiens, UniProt P49759)
Sequence of Dual specificity protein kinase CLK1 (P49759 whole entry): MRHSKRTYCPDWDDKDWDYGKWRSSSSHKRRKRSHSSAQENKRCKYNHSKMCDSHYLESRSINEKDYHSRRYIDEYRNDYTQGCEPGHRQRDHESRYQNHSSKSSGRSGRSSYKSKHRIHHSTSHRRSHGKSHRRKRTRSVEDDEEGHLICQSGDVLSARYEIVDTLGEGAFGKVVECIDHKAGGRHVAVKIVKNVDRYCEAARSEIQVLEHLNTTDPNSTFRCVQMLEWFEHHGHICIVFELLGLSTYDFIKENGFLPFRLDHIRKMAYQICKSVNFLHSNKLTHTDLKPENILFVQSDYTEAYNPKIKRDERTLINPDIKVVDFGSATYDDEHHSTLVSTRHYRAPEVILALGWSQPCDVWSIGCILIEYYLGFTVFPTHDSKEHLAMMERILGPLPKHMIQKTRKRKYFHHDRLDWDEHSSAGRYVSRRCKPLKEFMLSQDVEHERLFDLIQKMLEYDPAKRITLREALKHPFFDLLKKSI

- IC50 (SRSF protein kinase 2): > 10 µM
- IC50 (SRSF protein kinase 1): > 10 µM
SMILES: CN(c1ncccc1CNc1ccnc(-c2cc3cc(Cl)ccc3[nH]2)n1)S(C)(=O)=O

- IC50 (CDK8/Cyclin C): 0.671 µM
SMILES: CN(C)C(=O)Cn1cc(-c2ccc(-c3nnc4ccccn34)cc2)cn1

- IC50 [5]: 30.3 µM
- IC50 [6]: 30.3 µM
SMILES: CN(C)CCCOc1ccc(-c2cc(NCCCn3cccn3)nc(S(C)(=O)=O)n2)cc1

More lines, now with the values behind:

SMILES: CC(=O)c1cc(-c2ccccc2OCC2CC2)c2ncccn12
- Kd [1]: > 20 µM

SMILES: CCc1cc2cc(NS(=O)(=O)c3ccc(C#N)cc3)ccc2n(CC)c1=O
- IC50 (Peregrin): > 100 µM
- IC50 [2]: > 100 µM
- IC50 [3]: > 100 µM

SMILES: CCn1c(-c2nc3cc(C(=O)N4CCCC(N)C4)ccc3n2C)cc2ccccc21 (centres undefined)
- IC50 [4]: > 100 µM

SMILES: Cc1cc(CN)cc(C)c1-c1ncn(C)c1-c1cncn1C
- IC50 [7]: 120 µM

SMILES: COc1cc(Nc2nc(C)cc(-c3cnn4nc(OC)ccc34)n2)cc(C(F)(F)F)c1
- IC50 [8]: > 10 µM
- IC50 [9]: > 10 µM
- IC50 [10]: > 10 µM
